Measured values: patent EP1144412B1, “IMMUNOSUPPRESSIVE EFFECTS OF PTERIDINE DERIVATIVES” (4 AZA Bioscience nv, priority 1998, dated 2000)
Like-named read-outs stand apart in the source and are kept apart here.

Columns and labels:
Highly purified T cells [1] = assay: T cell proliferation induced by anti-CD3 mAb + PMA (BrdU incorporation); format: cell-based, Human; details: Homo sapiens, T-cell
Excerpt: (§1) Various models may be used for testing an immunosuppressive effect. In vivo, for example, different transplantation models are available. They are strongly influenced by different immunogenicities, depending on the donor and recipient species used and depending on the nature of the transplanted organ. The survival time of transplanted organs can thus be used to measure the suppression of the immune response. In vitro, there exist also various models. The most used are lymphocyte activation tests. Usually activation is measured via lymphocyte proliferation. Inhibition of proliferation thus always means immunosuppression under the experimental conditions applied. There exist different stimuli for lymphocyte activation: • coculture of lymphocytes of […] (MLR = mixed lymphocyte reaction): lymphocytes expressing different minor and major antigens of the HLA-DR type (= alloantigens) activate each other non-specifically. • CD3 assay: here there is an activation of the T-lymphocytes via an exogenously added antibody (OKT3). This antibody reacts against the CD3 molecule located on the lymphocyte membrane. This molecule has a costimulatory function. […] This molecule is also located on the lymphocyte membrane, and delivers strong costimulatory signals.
(§2) T cells were purified by removing non-T cells. Briefly,monocytes were removed by cold agglutination. The resulting lymphoid cells were further purified by a cell enrichment immunocolumn [Cellect Human T (Biotex, Edmonton, Alberta, Canada)] by a process of negative selection.
(§3) Measurements of T cell proliferations induced by anti-CD3 mAb + PMA or anti-CD28 mAb + PMA
(§4) Highly purified T cells (10^6/ml) were stimulated by immobilized anti-CD3 àr anti-CD28 mAb in the presence of PMA. Anti-CD3 mAb (CLB-CD3; CLB, Amsterdam, The Netherlands) were fixed on the 96-microwell plates by incubating the wells with 50 µl of mAb solution (1/800 dilution in culture medium). Anti-CD28 mAb (CLB-CD28; CLB, Amsterdam, The Netherlands) 50 µl (1/650 dilution in culture medium) was added directly to the wells. Further, 20 µl PMA (Sigma, St. Louis, MO, USA) solution (final concentration: 0.5 ng/ml) was added. Subsequently, 20 µl of immunosuppressants were added by serial dilution in triplicate wells. Finally 100 µl of the T cell suspension (10^6/ml) was added. After 48-hour incubation at 37EC in 5% CO2 20 Φl BrdU (100 ΦM solution) (Cell Proliferation Elisa, Boehringer-Mannheim Belgium) was added to each well. After a further overnight incubation the T cell proliferation was measured using a colorimetric immunoassay for qualification of cell proliferation based on measurements of the incorporation of BrdU during DNAsynthesis. The optical density (OD) was measured by a Behring EL311 plate reader at 450 nm (reference wavelength: 690 nm). The percent suppression of proliferation by drugs was counted using the formula: Per cent inhibition =((OD + drugs) - (OD Cult. Med.))/((OD - drugs) - (OD Cult. Med.))x 100 [formula]

[2] = tested on: Peripheral blood mononuclear cells (PBMC); assay: Mixed lymphocyte reaction (MLR), [3H]-thymidine incorporation; format: cell-based; details: Homo sapiens
Excerpt: as §1
Peripheral blood mononuclear cells (PBMC) were isolated from heparinized peripheral blood by density gradient centrifugation over Lymphoprep (Nycomed, Maorstua, Norway). Allogeneic PBMC or EBV-transformed human B cells [RPMI1788 (ATCC name CCL156)] which strongly express B7-1 and B7-2 were used as stimulator cells after irradiation with 30 Gy. MLR was performed in triplicate wells. After 5 days incubation at 37EC, 1 µCi [^3H]-thymidine was added to each cup. After a further 16 hours incubation, cells were harvested and counted in a β-counter.
The percent suppression of proliferation by drugs was counted using the formula Percent inhibition =((cpm + drugs) - cpm Cult. Med)/((cpm - drugs) - cpm Cult. Med.)x 100 [formula]

Highly purified T cells [3] = assay: T cell proliferation induced by anti-CD28 mAb + PMA (BrdU incorporation); format: cell-based, Human; details: Homo sapiens, T-cell
Excerpt: as §1, §2, §3, §4

[4] = Table IV, known pteridine derivatives, IC50 subranges, read-out: aCD3
[5] = Table IV, known pteridine derivatives, IC50 subranges, read-out: MLR
[6] = Table IV, known pteridine derivatives, IC50 subranges, read-out: aCD28
[7] = Table II, read-out: IC50 in µM of pteridine derivative ACD3
[8] = untitled structure table, no unit printed there, same values in Table II as IC50 in µM, read-out: aCD3
[9] = Table II, read-out: IC50 in µM of pteridine derivative MLR
[10] = untitled structure table, no unit printed there, same values in Table II as IC50 in µM, read-out: MLR
[11] = Table II, read-out: IC50 in µM of pteridine derivative aCD28
[12] = untitled structure table, no unit printed there, same values in Table II as IC50 in µM, read-out: aCD28

SMILES | IC50 (Highly purified T cells [1]; [4]) [µM] | IC50 [2, 5] [µM] | IC50 (Highly purified T cells [3]; [6]) [µM] | IC50 (Highly purified T cells [1]; [7]) [µM] | IC50 (Highly purified T cells [1]; [8]) [µM] | IC50 [2, 9] [µM] | IC50 [2, 10] [µM] | IC50 (Highly purified T cells [3]; [11]) [µM] | IC50 (Highly purified T cells [3]; [12]) [µM] | IC50 (Highly purified T cells [1]; Table III, comparison immunosuppressants, read-out: IC50 aCD3) [µM] | IC50 (Highly purified T cells [3]; Table III, comparison immunosuppressants, read-out: IC50 aCD28) [µM]
CC(C)C(=O)NCc1cnc2nc(N)nc(N)c2n1 [CH2 NH CO CH (CH3)2, reference compound] | > 151 | > 151 | > 151 | – | – | – | – | – | – | – | –
CCCOCc1cnc2nc(N)nc(N)c2n1 [CH2 O CH2CH2CH3, reference compound] | > 151 | > 151 | > 151 | – | – | – | – | – | – | – | –
COCc1cnc2nc(N)nc(N)c2n1 [CH2 O CH3, reference compound] | > 151 | > 151 | > 151 | – | – | – | – | – | – | – | –
CSCc1cnc2nc(N)nc(N)c2n1 [CH2 S CH3, reference compound] | > 151 | > 151 | > 151 | – | – | – | – | – | – | – | –
CN(C)Cc1cnc2nc(N)[nH]c(=O)c2n1 [CH2N(CH3)2, reference compound] | > 151 | > 151 | > 151 | – | – | – | – | – | – | – | –
CNCc1cnc2nc(N)[nH]c(=O)c2n1 [CH2NHCH3, reference compound] | > 151 | > 151 | > 151 | – | – | – | – | – | – | – | –
CCOCc1cnc2nc(N)[nH]c(=O)c2n1 [CH2OC2H5, reference compound] | > 151 | > 151 | > 151 | – | – | – | – | – | – | – | –
CSCc1cnc2nc(N)[nH]c(=O)c2n1 [CH2S CH3, reference compound] | > 151 | > 151 | > 151 | – | – | – | – | – | – | – | –
CCCCCOc1nc(N)nc2ncc(C=Cc3ccccc3)nc12 [Compound 1, 2-amino-4-pentoxy-6-styrylpteridine] | – | – | – | 110 | 110 | 15 | 15 | 80 | 80 | – | –
CCCCCOc1nc(N)nc2ncc(C(Br)C(Br)c3ccccc3)nc12 (centres unmarked) [Compound 2, 2-amino-4-n-pentoxy-6-(1,2-dibromo-2-phenylethyl)pteridine] | – | – | – | 4 | 4 | 12 | 12 | 12 | 12 | – | –
COc1nc2nc(N)nc(OC)c2nc1C=Cc1ccccc1 [Compound 3, 2-amino-4-methoxy-6-styryl-7-methoxypteridine] | – | – | – | 160 | 160 | 25 | 25 | 100 | 100 | – | –
COc1nc(N)nc2ncc(C(O)C(C)O)nc12 (centres unmarked) [Compound 4, 2-amino-4-methoxy-6-(1,2-dihydroxypropyl)pteridine] | – | – | – | 140 | 140 | > 200 | > 200 | 110 | 110 | – | –
Nc1nc(N)c2nc(-c3ccccc3)cnc2n1 [Compound 5, 2,4-diamino-6-phenyl pteridine] | – | – | – | > 200 | > 200 | > 200 | > 200 | > 200 | > 200 | – | –
O=c1[nH]cc(F)c(=O)[nH]1 [Compound 5-FU, 5-Fluoro-uracil, reference compound] | – | – | – | – | – | – | – | – | – | 50 | 17
